Data taken from ChEMBL document CHEMBL1201862, “PubChem BioAssay data set” (2004).
Activity calls are given as the source filed them.

Tests used:
[1] = NIH-3T3 fibroblast cytotoxicity, dose response, cytotoxicity control, cell-based, fluorescence, Alamar Blue, secondary assay (AID 2327); format: functional;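 note: NIH-3T3 mouse fibroblasts cultured with fluconazole at 8 µg/mL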
BJ [2] = test: cytotoxicity toward BJ-TERT fibroblasts, dose response, cell-based, RAS-independent, luminescence (AID 1933); format: functional; settings: Homo sapiens
BJ [3] = test: cells; format: functional, cell-based; settings: Homo sapiens
[4] = C. albicans growth with fluconazole, confirmation, fluorescence, retest (AID 2467); format: functional, cell-based
BJ [5] = test: cytotoxicity toward BJ-TERT-LT-ST fibroblasts, dose response, cell-based, RAS-independent, luminescence (AID 1935); format: functional; settings: Homo sapiens;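 note: BJ fibroblasts immortalized with TERT plus LT and ST oncogenes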
[6] = cytotoxicity toward DRD oncogenic fibroblasts, dose response, cell-based, non-viral oncogenic, luminescence (AID 1934); format: functional; settings: Homo sapiens
[7] = target: T1, Ubiquitin-conjugating enzyme E2 N (Homo sapiens, UniProt P61088); format: functional;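 note: Dose-response confirmation in a TR-FRET assay detecting UBC13-driven polyubiquitin chain formation, inhibition measured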
T1 sequence (P61088 whole entry): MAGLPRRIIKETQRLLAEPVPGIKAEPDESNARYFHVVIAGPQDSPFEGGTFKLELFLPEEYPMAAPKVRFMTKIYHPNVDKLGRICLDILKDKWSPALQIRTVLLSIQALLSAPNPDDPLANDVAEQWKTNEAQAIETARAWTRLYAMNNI

Mu-type opioid receptor = Mu-type opioid receptor (Homo sapiens, UniProt P35372); format: functional, cell-based;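 note: U2OS cells with beta-arrestin recruitment to OPRM1 by beta-gal complementation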
Chain of Mu-type opioid receptor (P35372 whole entry): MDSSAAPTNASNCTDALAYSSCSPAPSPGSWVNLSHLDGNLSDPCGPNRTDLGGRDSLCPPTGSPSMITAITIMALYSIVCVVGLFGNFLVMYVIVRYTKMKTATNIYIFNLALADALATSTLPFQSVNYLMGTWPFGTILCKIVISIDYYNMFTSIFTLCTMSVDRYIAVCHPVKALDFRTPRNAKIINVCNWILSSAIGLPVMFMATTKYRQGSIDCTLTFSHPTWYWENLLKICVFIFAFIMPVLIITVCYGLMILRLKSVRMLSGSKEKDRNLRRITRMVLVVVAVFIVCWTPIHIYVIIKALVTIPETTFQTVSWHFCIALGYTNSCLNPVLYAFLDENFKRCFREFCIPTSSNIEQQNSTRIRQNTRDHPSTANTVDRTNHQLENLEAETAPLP

[8] = target: 5-hydroxytryptamine receptor 2A (Mus musculus, UniProt P35363); format: functional, cell-based;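 note: CHO-K1 cells with tagged receptor and beta-arrestin; agonist potency measured as compound-induced activation of the receptor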
Chain of 5-hydroxytryptamine receptor 2A (P35363 whole entry): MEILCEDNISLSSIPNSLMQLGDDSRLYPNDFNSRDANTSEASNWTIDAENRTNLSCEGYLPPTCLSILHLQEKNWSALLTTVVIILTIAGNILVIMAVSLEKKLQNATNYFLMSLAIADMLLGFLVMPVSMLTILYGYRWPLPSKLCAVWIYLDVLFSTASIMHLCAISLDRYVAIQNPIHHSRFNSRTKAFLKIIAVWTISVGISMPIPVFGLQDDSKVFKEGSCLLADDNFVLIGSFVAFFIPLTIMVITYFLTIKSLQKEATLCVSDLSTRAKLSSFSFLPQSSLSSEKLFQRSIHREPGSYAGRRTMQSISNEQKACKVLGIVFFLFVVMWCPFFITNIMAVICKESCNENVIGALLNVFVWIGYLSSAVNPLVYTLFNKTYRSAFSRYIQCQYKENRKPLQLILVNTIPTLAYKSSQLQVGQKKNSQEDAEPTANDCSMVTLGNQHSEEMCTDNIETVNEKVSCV

[9] = target: Voltage-gated inwardly rectifying potassium channel KCNH2 (Homo sapiens, UniProt Q12809); settings: Potency;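 note: confirmatory quantitative high-throughput screen measuring inhibition of hERG channel activity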
Chain of Voltage-gated inwardly rectifying potassium channel KCNH2 (Q12809 whole entry): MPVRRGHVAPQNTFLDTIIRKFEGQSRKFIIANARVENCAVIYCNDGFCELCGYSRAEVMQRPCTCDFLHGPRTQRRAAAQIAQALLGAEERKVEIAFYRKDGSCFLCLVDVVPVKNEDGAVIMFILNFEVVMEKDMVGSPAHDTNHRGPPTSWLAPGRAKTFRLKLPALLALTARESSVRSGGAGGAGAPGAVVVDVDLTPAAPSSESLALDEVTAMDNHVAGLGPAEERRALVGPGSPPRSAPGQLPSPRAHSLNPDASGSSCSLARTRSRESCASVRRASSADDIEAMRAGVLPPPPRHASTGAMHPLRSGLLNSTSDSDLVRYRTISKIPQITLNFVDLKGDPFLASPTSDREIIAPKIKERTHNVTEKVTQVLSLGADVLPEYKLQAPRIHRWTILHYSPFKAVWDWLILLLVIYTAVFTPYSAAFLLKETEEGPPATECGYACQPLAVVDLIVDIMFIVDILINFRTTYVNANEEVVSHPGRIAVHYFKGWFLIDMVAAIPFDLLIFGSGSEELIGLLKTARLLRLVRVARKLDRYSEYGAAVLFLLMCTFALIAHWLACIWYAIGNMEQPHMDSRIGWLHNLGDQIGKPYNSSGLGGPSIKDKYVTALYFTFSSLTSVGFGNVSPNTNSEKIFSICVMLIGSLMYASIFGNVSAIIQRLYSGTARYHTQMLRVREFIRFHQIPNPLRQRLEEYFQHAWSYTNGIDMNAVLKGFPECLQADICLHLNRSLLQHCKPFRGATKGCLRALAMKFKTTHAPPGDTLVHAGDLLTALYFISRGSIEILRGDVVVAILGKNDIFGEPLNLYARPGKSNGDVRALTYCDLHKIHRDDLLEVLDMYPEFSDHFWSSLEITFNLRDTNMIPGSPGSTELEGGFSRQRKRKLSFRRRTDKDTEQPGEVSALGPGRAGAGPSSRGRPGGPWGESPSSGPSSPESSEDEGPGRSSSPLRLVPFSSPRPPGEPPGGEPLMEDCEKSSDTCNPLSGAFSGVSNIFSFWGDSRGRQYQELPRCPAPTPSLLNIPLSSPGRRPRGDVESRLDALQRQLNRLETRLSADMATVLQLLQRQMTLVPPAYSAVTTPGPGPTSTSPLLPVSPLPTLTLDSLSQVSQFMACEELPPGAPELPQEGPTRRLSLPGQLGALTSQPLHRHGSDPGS

[10] = target: T2, Microphthalmia-associated transcription factor (Homo sapiens, UniProt O75030); test: TRPM1 promoter luciferase signal decrease, dose response, MITF inhibitor project, cell-based, SK-MEL-5, cherry-picked, set 3 (AID 493073); format: functional
T2 sequence (O75030 whole entry): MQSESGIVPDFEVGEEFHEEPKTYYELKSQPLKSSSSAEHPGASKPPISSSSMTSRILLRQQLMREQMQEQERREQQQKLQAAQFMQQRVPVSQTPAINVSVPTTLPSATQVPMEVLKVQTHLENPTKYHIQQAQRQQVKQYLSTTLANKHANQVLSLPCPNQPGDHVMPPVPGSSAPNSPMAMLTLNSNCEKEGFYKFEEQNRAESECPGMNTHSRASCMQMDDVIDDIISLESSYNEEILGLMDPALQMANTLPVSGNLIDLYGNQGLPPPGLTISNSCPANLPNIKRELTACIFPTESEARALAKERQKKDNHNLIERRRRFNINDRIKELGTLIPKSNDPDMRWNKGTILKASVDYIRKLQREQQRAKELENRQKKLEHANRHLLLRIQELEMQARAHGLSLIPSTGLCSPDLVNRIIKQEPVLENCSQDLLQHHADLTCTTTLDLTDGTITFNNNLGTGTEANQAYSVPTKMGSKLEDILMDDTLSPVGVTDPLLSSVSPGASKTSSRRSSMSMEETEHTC

A-375 = test: MITF: Counter assay: A375 proliferation Measured in Cell-Based System Using Plate Reader - 2084-03_Inhibitor_Dose_DryPowder_Activity. [Related pubchem assays (depositor defined):AID488944]; format: functional; settings: Homo sapiens
[11] = target: T3, DNA repair protein RAD52 homolog (Homo sapiens, UniProt P43351); format: functional, biochemical
T3 sequence (P43351 whole entry): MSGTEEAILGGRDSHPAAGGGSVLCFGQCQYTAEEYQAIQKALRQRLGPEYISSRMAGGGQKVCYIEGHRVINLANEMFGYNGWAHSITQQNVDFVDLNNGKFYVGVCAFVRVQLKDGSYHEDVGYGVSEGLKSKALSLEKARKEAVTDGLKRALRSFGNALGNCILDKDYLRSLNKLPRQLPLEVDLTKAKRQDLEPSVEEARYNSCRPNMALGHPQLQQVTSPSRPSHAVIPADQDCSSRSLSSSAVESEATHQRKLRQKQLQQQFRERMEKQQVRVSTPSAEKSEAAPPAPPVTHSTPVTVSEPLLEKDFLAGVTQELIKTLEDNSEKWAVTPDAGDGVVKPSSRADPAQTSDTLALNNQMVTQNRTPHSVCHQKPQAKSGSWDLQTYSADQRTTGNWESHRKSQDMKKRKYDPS

[12] = inhibitors of intracellular T. cruzi replication, confirmation, NIH3T3 host cells, beta-gal luminescence (AID 2044); format: functional, cell-based;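 note: intracellular parasites grown in NIH/3T3 mouse fibroblasts as host cells; luminescent beta-galactosidase reporter signal from transgenic T. cruzi replicating inside host cells; inhibitors lower the luminescence signal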
[13] = cytotoxicity toward NIH3T3 fibroblasts, dose response, counter-screen, cell-based, ATP luminescence, mouse fibroblasts (AID 2010); format: functional;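 note: cells exposed to compound for about 90 hours before reading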
[14] = THP-1 cell cytotoxicity, dose response, cytotoxicity control for non-replicating M. tuberculosis project (AID 489025); format: functional
[15] = HepG2 cell cytotoxicity, dose response, cytotoxicity control for non-replicating M. tuberculosis project (AID 489018); format: functional; settings: Mycobacterium tuberculosis
Beta-galactosidase = Beta-galactosidase (Escherichia coli, UniProt Q8VNN2); test: beta-galactosidase enzyme inhibitors and activators, dose response, artefact control for CCR6 antagonist project, biochemical, E. coli enzyme, set 3 (AID 504712); format: functional
Chain of Beta-galactosidase (Q8VNN2 whole entry): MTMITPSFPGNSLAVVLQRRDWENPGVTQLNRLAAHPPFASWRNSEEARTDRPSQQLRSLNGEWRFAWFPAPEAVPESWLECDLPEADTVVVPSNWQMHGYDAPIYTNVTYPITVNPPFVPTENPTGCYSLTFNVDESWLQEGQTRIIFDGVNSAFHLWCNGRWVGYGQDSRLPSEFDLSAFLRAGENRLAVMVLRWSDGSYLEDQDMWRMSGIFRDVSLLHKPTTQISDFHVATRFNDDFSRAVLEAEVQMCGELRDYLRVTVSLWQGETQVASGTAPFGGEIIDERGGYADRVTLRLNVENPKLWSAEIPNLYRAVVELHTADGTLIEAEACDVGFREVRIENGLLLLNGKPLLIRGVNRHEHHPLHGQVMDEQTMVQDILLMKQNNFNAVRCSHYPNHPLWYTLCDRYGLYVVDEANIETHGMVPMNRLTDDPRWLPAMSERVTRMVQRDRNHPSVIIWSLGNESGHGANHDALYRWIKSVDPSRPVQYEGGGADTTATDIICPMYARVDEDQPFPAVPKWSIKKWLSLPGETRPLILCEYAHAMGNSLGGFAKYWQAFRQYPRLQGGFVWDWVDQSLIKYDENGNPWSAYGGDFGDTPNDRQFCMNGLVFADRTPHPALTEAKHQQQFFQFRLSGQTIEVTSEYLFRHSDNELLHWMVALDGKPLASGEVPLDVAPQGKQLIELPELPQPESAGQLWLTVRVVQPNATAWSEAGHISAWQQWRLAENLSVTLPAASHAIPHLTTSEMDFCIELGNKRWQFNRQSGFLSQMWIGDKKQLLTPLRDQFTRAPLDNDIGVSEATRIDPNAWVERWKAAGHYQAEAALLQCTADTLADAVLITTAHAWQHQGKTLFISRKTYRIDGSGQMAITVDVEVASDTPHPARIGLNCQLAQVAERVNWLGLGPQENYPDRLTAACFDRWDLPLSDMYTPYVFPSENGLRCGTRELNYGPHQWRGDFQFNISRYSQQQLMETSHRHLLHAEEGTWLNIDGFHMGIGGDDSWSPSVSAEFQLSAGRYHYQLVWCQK

[16] = Vero E6 cell cytotoxicity, dose response, cytotoxicity control for non-replicating M. tuberculosis project, secondary assay (AID 492998); format: functional, VeroE6; settings: Vero C1008
cells = format: functional
[17] = target: T4, Replicative DNA helicase DnaB (Mycobacterium tuberculosis, UniProt P9WMR3); test: DnaB intein splicing inhibitors, dose response, biochemical, cell-free fluorescence (AID 449749); format: functional
T4 sequence (P9WMR3 whole entry): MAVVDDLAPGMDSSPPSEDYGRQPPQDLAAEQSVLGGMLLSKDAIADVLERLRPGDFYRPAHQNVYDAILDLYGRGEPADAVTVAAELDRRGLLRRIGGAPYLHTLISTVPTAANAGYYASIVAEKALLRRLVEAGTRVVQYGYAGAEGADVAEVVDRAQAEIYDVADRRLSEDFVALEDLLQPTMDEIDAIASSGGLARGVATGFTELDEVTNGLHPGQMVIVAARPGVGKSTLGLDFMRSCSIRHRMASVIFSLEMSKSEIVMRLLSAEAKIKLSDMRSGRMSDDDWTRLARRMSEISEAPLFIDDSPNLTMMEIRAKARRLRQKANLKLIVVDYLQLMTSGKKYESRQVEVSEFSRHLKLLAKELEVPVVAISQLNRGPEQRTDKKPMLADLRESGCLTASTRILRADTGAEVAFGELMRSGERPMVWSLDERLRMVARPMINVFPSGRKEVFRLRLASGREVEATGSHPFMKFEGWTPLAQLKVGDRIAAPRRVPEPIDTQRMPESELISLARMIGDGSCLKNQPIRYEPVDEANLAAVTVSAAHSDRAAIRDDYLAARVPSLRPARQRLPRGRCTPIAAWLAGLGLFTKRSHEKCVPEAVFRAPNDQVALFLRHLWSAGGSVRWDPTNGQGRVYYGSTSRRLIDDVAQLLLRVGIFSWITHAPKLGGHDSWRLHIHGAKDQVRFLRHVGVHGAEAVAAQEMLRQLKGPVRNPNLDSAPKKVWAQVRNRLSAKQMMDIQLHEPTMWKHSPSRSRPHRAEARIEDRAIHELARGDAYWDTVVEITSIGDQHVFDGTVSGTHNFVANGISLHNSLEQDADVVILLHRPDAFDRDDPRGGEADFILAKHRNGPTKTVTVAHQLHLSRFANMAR

[18] = target: Heat shock protein HSP 90-alpha (Homo sapiens, UniProt P07900); format: functional, organism-based
Apelin receptor = Apelin receptor (Homo sapiens, UniProt P35414); test: APJ beta-arrestin recruitment antagonism, SAR follow-up, selectivity assay for CCR6 antagonist project, cell-based, luminescent, enzyme-fragment complementation (AID 588359); format: functional
Chain of Apelin receptor (P35414 whole entry, the tested form may be a part): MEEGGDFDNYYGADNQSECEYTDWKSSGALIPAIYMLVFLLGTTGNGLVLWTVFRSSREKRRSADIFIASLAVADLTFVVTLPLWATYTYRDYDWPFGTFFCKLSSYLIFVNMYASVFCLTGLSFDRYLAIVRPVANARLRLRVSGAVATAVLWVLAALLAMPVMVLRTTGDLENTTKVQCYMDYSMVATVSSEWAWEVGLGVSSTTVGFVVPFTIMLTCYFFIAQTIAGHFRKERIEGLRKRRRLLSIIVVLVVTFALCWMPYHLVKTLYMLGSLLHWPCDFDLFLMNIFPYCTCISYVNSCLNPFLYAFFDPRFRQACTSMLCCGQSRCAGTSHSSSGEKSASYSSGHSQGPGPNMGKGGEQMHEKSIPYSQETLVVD

Protein RecA = target: T5, Protein RecA (Mycobacterium tuberculosis, UniProt P9WHJ3); test: Fluorescence Cell-Free Homogeneous Dose Retest to Identify Inhibitors of RecA-Intein Splicing Activity. [Related pubchem assays (depositor defined):AID2097, AID2223, AID489010, AID492950]; format: functional
T5 sequence (P9WHJ3 whole entry): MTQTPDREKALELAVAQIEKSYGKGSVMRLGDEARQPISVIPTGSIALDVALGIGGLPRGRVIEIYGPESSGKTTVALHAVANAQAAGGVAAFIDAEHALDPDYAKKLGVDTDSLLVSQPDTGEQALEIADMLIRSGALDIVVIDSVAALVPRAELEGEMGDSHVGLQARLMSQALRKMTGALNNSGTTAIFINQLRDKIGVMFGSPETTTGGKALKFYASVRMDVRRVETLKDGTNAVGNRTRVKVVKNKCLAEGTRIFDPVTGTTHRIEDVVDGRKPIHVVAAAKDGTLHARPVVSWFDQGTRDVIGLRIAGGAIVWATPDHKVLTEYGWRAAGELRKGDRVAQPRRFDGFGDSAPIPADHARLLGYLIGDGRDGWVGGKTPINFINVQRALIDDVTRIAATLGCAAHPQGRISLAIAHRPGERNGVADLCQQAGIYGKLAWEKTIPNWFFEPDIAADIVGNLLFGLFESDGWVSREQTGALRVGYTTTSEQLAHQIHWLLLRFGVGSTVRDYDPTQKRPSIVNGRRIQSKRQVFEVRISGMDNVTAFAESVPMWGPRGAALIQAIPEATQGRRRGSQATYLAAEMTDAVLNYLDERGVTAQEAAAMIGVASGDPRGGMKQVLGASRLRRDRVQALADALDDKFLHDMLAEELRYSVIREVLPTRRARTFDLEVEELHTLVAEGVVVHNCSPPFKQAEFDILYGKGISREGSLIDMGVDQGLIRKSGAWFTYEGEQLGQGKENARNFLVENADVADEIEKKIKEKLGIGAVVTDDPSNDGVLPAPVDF

[19] = target: Beta-2 adrenergic receptor (Homo sapiens, UniProt P07550); test: beta2AR agonists driving receptor internalization, dose response, cell-based, FAP fluorogen, flow cytometry, cherry pick 1 (AID 588763); format: functional
Chain of Beta-2 adrenergic receptor (P07550 whole entry): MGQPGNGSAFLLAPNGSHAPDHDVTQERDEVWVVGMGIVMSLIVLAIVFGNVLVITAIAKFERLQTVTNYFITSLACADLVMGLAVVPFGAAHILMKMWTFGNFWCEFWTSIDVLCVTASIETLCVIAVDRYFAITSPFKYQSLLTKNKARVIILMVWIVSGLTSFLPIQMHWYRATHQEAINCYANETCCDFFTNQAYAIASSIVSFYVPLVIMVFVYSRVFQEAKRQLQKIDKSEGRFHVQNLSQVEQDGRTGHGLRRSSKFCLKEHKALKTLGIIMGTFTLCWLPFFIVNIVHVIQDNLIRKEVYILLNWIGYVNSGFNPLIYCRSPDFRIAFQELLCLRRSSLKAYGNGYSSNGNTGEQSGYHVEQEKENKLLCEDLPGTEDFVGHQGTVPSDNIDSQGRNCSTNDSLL

Escherichia coli = test: microbe, parasite or virus in culture
[20] = cytotoxicity in NIH/3T3 mouse fibroblasts, dose response, cytotoxicity control, cell-based, mouse embryonic fibroblasts, dry powder, set 2 (AID 493247); format: functional; settings: Fibroblast
Trypanosoma cruzi = test: growth inhibition of intracellular Trypanosoma cruzi, dose response, cell-based, plate reader, dry powder, set 3 (AID 493197); format: functional
[21] = inhibitors of Trypanosoma cruzi host-cell infection, confirmation, beta-gal luminescence, NIH3T3 host cells (AID 2630); format: functional, cell-based; settings: Mus musculus
[22] = target: Dual specificity protein phosphatase 3 (Homo sapiens, UniProt P51452); test: SAR VHR1 Fluorescent Assay for In Vitro dose response studies Set 3. [Related pubchem assays (depositor defined):AID1654, AID1661, AID1878]; format: functional
Chain of Dual specificity protein phosphatase 3 (P51452 whole entry): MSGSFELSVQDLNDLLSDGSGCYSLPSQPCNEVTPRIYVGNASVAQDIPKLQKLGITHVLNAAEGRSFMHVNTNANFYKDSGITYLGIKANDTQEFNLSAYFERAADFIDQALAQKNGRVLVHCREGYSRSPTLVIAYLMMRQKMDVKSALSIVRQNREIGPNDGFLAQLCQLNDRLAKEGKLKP

Structure (SMILES): NC[C@@H]1O[C@H](C23CC4CC(CC(C4)C2)C3)Cc2c1ccc(O)c2O
- EC50 [1]: > 150 µM (inactive)
- EC50 (BJ [2]): 10.3 µM (inconclusive)
- EC50 (BJ [3]): > 150 µM (not active)
- EC50 [4]: 4.44 µM (active)
- EC50 (BJ [5]): 13.7 µM (inconclusive)
- EC50 [6]: 13.1 µM (active)
- IC50 [7]: > 20 µM (inactive)
- EC50 (Mu-type opioid receptor): 92.4 µM (inactive)
- EC50 [8]: 1.2 µM (active)
- AC50 [9]: 22.4 µM (inconclusive)

Structure (SMILES): CN1CCC(N(C)C(=O)/C=C/c2cn(-c3ccccc3)nc2-c2cccs2)CC1
- IC50 [7]: > 20 µM (inactive)
- AC50 [10]: 9.82 µM (active)
- AC50 (A-375): 30.5 µM (active)
- AC50 [11]: 12.2 µM (active)

Structure (SMILES): O=[N+]([O-])c1ccc(S(=O)(=O)c2cccc(C(F)(F)F)c2)nc1
- EC50 (BJ [2]): 2.55 µM (inconclusive)
- EC50 (BJ [3]): 12.1 µM (inconclusive)
- EC50 [12]: 0.913 µM (active)
- EC50 [13]: 2.06 µM (active)
- EC50 (BJ [5]): 10.8 µM (inconclusive)
- EC50 [6]: 6.52 µM (active)
- CC50 [14]: 28.8 µM (active)
- CC50 [15]: > 20 µM (active)
- IC50 (Beta-galactosidase): > 66.6 µM (inactive)
- CC50 [16]: 14.8 µM (active)
- IC50 (cells): 3.47 µM (active)
- AC50 [17]: > 380 µM (inactive)
- AC50 [18]: 1.84 µM (active)
- IC50 (Apelin receptor): 18.8 µM (active)
- EC50 (Protein RecA): 14.2 µM (active)
- EC50 [19]: 7.62 µM (inactive)

Structure (SMILES): COC(=O)c1cnc(NNS(=O)(=O)c2ccc(C(F)(F)F)cc2)nc1C(F)(F)F
- AC50 (Escherichia coli): > 380 µM (inactive)

Structure (SMILES): CN(Cc1ccccc1)C(=O)C1CCCN(Cc2ccccc2C(F)(F)F)C1 (stereo not given)
- AC50 [20]: 63.3 µM (active)
- AC50 (Trypanosoma cruzi): 15.9 µM (active)
- EC50 [21]: 4.64 µM (active)

Structure (SMILES): CCOc1cccc2sc(NC(=O)c3ccc(OC)cc3)nc12
- IC50 [22]: 51.7 µM (active)
